Measured values as given in patent US20230212144A1, “5-MEMBERED HETEROARYL DERIVATIVE CONTAINING AT LEAST ONE N, AND PHARMACEUTICAL COMPOSITION FOR PREVENTING OR TREATING MENTAL DISORDERS, CONTAINING SAME AS ACTIVE INGREDIENT” (DAEGU-GYEONGBUK MEDICAL INNOVATION FOUNDATION, priority 2020, published 2023).

Key:
Conditions in all cases: compound 1 μM; relative to control without compound (100%); lower value = stronger inhibition
[1] = biological target: serotonin transporter (SERT) (Homo sapiens, UniProt P31645); test: Serotonin reuptake inhibition, [3H]-5-HT, cells transfected with 5-HT transporter cDNA
Sequence of serotonin transporter (SERT) (P31645 whole entry, species assumed): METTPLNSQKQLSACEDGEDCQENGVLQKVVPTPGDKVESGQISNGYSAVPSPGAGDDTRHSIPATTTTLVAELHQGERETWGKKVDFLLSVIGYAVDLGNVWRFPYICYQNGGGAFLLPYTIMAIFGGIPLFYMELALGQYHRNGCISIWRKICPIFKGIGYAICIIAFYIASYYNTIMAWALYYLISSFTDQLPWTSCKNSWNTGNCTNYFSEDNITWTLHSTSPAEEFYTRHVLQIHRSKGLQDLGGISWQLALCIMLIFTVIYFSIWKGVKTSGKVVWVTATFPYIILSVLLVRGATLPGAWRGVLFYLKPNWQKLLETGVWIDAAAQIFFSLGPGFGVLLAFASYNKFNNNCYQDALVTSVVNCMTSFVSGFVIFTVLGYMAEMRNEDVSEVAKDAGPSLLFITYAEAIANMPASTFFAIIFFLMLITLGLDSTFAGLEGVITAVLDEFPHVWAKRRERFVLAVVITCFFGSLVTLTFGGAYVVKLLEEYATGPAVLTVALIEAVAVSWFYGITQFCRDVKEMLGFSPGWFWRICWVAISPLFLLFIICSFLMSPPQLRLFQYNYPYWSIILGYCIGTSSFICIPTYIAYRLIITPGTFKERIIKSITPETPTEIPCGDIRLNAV
Description: (§1) After removing the medium, each compound of Examples or Comparative Examples diluted to 1 μM in uptake buffer was added to a concentration of 200 μL/well and cultured at 37° C. for 15 minutes. 100 μL of uptake buffer containing 20-30 nM [3H]-DA was added and cultured at 37° C. for 5 minutes. The reaction solution was quickly removed and washed three times with 1 mL ice-cold uptake buffer. After dissolving the resultant in 1% SDS (0.5 mL), the degree of binding of radioisotope-labeled dopamine to the transporter was measured.
(§2) For norepinephrine(NE) and serotonin(5-HT), the degree of binding of radioisotope-labeled norepinephrine or serotonin to the transporter was measured in the same manner as above, except that cells transfected with NE or 5-HT transporter cDNA were used and [3H]-NE or [3H]-5-HT was used as a substrate.
(§3) In addition, when evaluating the reuptake inhibitory effect on dopamine, norepinephrine, and serotonin, the same method was performed without treating each compound of Examples or Comparative Examples as a control, the degree of binding of radioisotope-labeled dopamine, norepinephrine, and serotonin to the transporter was measured, and by using this as a reference (100%), the triple reuptake inhibitory effect was evaluated as a relative ratio (Ratio %). That is, in the control group, the binding of dopamine, norepinephrine, and serotonin to transporters is not inhibited, but when each compound of Examples is treated and thus the binding is inhibited, the Ratio % value decreases.

[2] = biological target: norepinephrine transporter (NET) (Homo sapiens, UniProt P23975); test: Norepinephrine reuptake inhibition, [3H]-NE, cells transfected with NE transporter cDNA
Sequence of norepinephrine transporter (NET) (P23975 whole entry, species assumed): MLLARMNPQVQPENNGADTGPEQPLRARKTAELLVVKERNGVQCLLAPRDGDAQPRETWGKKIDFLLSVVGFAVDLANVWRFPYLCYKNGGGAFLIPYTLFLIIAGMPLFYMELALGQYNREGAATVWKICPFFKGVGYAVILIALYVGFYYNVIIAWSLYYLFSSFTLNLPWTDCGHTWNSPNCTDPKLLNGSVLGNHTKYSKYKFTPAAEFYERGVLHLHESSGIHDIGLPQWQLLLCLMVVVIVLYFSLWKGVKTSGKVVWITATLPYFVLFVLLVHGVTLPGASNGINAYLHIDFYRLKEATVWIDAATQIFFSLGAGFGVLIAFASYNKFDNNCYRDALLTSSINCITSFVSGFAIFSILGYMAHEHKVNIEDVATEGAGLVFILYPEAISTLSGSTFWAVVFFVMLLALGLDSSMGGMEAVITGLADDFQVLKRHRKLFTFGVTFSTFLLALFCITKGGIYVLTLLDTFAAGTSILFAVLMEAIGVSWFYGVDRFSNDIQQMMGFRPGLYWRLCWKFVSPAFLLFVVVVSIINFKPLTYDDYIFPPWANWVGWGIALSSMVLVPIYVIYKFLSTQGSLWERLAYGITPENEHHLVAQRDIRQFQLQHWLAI
Description: as §1, §2, §3

[3] = biological target: dopamine transporter (DAT) (Homo sapiens, UniProt Q01959); test: Dopamine reuptake inhibition, [3H]-DA, HEK-293 cells transfected with dopamine transporter cDNA
Sequence of dopamine transporter (DAT) (Q01959 whole entry, species assumed): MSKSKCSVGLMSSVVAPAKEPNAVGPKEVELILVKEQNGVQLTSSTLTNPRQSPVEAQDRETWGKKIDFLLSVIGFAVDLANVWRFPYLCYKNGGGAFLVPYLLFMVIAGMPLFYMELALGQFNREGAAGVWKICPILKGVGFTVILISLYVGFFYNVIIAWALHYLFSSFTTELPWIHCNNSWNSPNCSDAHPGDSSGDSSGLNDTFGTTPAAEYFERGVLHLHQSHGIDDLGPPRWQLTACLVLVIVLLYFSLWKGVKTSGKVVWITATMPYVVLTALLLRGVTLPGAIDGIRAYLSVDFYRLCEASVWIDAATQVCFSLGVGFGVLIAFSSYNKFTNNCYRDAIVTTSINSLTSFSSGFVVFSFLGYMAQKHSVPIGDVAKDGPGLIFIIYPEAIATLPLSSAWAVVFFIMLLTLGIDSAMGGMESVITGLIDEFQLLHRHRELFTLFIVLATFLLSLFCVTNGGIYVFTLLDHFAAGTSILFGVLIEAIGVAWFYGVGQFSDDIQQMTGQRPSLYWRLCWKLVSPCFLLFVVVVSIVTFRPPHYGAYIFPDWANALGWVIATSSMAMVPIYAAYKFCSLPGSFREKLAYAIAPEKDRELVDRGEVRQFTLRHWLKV
Description: as §1, §3

SMILES: Cc1ccc2[nH]c(-c3nnc(CN4CCC(Cc5ccc(Cl)c(Cl)c5)CC4)[nH]3)cc2c1 [Example 30, 2-(5-((4-(3,4-dichlorobenzyl)piperidin-1-yl)methyl)-4H-1,2,4-triazol-3-yl)-5-methyl-1H-indole]
- Triple reuptake inhibition (Ratio %) SERT [1]: 88.71%
- Triple reuptake inhibition (Ratio %) NET [2]: 96.77%
- Triple reuptake inhibition (Ratio %) DAT [3]: 72.11%
